Source: patent publication EP4745137A1 (Gluetacs Therapeutics (Shanghai) Co., Ltd., priority 2023, dated 2025)

Experiments:
Type in all cases: cell-based
Conditions in all cases: 24 hours of compound treatment, 50 nM and 500 nM tested (concentration behind the class not stated)
IKZF3 = biological target: T1, IKZF3 (Homo sapiens, UniProt Q96SW2+Q9UKT9); experiment: Western-blot assay of substrate protein degradation in hPBMCs, IKZF3
T1 construct: endogenous in cells; host or cells: hPBMCs (Milecell Biotechnologies)
T1 sequence (Q9UKT9 whole entry): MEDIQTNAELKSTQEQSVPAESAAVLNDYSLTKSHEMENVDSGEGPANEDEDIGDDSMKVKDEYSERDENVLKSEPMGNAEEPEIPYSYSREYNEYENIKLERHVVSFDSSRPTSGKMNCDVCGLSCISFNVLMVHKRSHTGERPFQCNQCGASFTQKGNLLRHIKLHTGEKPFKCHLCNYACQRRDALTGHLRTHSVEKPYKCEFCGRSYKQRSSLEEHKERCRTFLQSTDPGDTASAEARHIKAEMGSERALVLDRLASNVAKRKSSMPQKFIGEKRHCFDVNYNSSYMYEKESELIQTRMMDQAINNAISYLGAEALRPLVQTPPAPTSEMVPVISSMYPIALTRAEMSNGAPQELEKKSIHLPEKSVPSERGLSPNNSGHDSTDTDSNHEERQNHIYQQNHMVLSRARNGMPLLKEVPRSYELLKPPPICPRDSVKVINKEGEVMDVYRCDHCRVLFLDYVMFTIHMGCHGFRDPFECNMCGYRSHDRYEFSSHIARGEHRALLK
T1 sequence (Q96SW2 whole entry): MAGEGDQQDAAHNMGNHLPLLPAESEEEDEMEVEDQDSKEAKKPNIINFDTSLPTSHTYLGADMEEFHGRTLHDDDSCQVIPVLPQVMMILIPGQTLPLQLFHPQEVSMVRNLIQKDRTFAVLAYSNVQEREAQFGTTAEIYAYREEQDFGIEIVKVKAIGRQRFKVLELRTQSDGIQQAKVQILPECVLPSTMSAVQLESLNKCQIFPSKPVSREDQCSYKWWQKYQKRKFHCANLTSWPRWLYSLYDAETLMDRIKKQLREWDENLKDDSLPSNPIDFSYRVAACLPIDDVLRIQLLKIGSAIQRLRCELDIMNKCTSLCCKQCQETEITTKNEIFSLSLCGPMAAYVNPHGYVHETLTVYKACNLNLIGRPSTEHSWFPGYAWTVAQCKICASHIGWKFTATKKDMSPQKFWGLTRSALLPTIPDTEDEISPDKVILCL
T1 sequence (Q16531 whole entry partner): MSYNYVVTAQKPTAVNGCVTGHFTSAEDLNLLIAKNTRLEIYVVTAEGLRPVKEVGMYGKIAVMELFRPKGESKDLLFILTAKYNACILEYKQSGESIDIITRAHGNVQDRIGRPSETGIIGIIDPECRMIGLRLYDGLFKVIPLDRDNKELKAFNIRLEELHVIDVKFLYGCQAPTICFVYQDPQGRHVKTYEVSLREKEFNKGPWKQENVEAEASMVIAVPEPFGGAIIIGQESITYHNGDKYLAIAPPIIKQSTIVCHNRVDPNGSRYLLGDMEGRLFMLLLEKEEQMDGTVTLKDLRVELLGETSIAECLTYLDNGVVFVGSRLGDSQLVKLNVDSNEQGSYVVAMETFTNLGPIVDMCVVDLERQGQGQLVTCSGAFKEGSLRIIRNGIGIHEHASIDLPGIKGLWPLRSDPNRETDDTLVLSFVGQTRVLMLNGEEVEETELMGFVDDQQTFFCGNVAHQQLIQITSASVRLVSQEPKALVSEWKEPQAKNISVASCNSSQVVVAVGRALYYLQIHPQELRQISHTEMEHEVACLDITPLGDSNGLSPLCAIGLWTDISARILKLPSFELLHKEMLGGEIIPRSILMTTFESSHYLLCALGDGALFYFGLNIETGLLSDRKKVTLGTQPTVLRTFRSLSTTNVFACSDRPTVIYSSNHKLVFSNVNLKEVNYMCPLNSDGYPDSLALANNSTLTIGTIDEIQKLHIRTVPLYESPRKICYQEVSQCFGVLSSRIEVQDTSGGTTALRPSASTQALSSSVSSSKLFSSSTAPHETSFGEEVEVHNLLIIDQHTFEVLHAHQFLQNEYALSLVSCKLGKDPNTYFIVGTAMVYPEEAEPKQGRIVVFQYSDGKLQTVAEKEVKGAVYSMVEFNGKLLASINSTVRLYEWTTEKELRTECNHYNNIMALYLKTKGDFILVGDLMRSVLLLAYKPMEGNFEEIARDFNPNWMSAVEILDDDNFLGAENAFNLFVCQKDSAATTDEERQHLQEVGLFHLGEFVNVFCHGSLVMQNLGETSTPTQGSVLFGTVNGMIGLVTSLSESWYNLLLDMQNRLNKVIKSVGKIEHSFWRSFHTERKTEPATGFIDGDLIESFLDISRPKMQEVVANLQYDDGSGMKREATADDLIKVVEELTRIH

WEE1 = biological target: T2, WEE1 (Homo sapiens, UniProt P30291+Q96SW2); experiment: Western-blot assay of substrate protein degradation in hPBMCs, WEE1
T2 construct: endogenous in cells; host or cells: hPBMCs (Milecell Biotechnologies)
T2 sequence (P30291 whole entry): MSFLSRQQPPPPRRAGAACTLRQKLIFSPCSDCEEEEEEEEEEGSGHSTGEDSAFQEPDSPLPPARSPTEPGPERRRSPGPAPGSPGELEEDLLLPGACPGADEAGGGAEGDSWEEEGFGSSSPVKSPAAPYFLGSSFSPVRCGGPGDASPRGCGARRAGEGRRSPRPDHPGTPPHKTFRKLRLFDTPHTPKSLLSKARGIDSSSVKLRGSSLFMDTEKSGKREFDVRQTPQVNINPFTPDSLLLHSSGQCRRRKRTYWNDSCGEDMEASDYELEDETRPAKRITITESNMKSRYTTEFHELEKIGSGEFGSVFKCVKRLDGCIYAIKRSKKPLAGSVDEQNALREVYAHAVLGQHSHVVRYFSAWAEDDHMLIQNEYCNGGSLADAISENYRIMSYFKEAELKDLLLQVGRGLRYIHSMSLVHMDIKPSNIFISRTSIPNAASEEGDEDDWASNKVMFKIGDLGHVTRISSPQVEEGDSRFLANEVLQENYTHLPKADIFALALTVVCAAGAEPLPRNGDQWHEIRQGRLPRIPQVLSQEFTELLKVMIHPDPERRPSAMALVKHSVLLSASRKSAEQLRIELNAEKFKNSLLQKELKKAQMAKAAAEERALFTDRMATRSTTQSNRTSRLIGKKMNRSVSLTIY
T2 sequence (Q96SW2 whole entry): as the sequence (Q96SW2 whole entry) above
T2 sequence (Q16531 whole entry partner): as the sequence (Q16531 whole entry partner) above

GSPT1 = biological target: T3, GSPT1 (Homo sapiens, UniProt P15170+Q96SW2); experiment: Western-blot assay of substrate protein degradation in hPBMCs, GSPT1
T3 construct: endogenous in cells; host or cells: hPBMCs (Milecell Biotechnologies)
T3 sequence (P15170 whole entry): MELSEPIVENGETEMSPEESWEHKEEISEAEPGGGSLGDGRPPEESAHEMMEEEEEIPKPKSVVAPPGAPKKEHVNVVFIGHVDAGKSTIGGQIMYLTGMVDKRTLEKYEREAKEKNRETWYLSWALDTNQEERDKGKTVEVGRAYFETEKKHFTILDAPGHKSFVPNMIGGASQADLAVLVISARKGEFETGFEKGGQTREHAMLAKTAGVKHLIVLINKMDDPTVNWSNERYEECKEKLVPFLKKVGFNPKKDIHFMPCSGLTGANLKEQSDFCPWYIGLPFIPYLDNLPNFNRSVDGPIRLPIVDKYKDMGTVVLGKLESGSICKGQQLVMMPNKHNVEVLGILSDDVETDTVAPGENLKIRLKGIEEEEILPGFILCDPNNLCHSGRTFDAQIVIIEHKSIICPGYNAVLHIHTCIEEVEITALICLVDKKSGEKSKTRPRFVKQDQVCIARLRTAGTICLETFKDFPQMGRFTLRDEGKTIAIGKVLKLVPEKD
T3 sequence (Q96SW2 whole entry): as the sequence (Q96SW2 whole entry) above
T3 sequence (Q16531 whole entry partner): as the sequence (Q16531 whole entry partner) above

IKZF1 = biological target: T4, IKZF1 (Homo sapiens, UniProt Q13422+Q96SW2); experiment: Western-blot assay of substrate protein degradation in hPBMCs, IKZF1
T4 construct: endogenous in cells; host or cells: hPBMCs (Milecell Biotechnologies)

CK1α = biological target: T5, CK1α (Homo sapiens, UniProt P48729+Q96SW2); experiment: Western-blot assay of substrate protein degradation in hPBMCs, CK1α
T5 construct: endogenous in cells; host or cells: hPBMCs (Milecell Biotechnologies)
T5 sequence (P48729 whole entry): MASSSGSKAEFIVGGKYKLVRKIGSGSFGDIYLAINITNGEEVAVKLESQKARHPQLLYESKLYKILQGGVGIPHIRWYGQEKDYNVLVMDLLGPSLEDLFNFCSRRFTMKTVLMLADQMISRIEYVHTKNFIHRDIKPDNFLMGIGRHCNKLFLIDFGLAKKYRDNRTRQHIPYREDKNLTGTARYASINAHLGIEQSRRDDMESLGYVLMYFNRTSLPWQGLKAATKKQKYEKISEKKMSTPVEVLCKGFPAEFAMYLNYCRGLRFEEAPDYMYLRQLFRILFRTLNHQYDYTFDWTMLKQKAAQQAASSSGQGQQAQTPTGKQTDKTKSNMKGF
T5 sequence (Q96SW2 whole entry): as the sequence (Q96SW2 whole entry) above
T5 sequence (Q16531 whole entry partner): as the sequence (Q16531 whole entry partner) above

IKZF2 = biological target: T6, IKZF2 (Homo sapiens, UniProt Q96SW2+Q9UKS7); experiment: Western-blot assay of substrate protein degradation in hPBMCs, IKZF2
T6 construct: endogenous in cells; host or cells: hPBMCs (Milecell Biotechnologies)
T6 sequence (Q9UKS7 whole entry): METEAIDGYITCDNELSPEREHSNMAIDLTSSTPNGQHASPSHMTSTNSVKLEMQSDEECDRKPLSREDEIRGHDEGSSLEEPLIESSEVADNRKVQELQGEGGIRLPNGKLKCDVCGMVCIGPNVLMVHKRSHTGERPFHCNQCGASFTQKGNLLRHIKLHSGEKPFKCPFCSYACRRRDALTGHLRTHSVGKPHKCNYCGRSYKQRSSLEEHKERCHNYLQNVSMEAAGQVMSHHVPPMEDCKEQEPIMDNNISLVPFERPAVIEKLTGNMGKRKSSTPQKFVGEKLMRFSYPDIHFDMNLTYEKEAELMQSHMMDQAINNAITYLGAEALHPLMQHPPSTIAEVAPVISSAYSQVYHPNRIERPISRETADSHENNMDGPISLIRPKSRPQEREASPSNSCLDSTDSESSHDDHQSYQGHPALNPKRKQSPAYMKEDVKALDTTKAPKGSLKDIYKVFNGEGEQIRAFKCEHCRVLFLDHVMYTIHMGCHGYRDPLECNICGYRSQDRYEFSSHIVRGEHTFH
T6 sequence (Q96SW2 whole entry): as the sequence (Q96SW2 whole entry) above
T6 sequence (Q16531 whole entry partner): as the sequence (Q16531 whole entry partner) above

Compound | IKZF3 substrate protein remaining % (IKZF3) | Weel substrate protein remaining % (WEE1) | GSPT1 substrate protein remaining % (GSPT1) | IKZF 1 substrate protein remaining % (IKZF1) | CK1a substrate protein remaining % (CK1α) | IKZF2 substrate protein remaining % (IKZF2)
O=C1CCC(N2C(=O)c3ccc(CN4CCC(c5ccsc5)CC4)cc3C2=O)C(=O)N1 (stereo not drawn) [GT-06281, 2-(2,6-dioxopiperidin-3-yl)-5-((4-(thiophen-3-yl)piperidin-1-yl)methyl)isoindoline-1,3-dione] | B (80%< substrate protein remaining %≤ 100%) | B (80%< substrate protein remaining %≤ 100%) | A (0% ≤ substrate protein remaining % ≤ 80%) | B (80%< substrate protein remaining %≤ 100%) | B (80%< substrate protein remaining %≤ 100%) | B (80%< substrate protein remaining %≤ 100%)
Cc1cscc1C1CCN(Cc2ccc3c(c2)C(=O)N(C2CCC(=O)NC2=O)C3=O)CC1 (stereo not drawn) [GT-06282, 2-(2,6-dioxopiperidin-3-yl)-5-((4-(4-methylthiophen-3-yl)piperidin-1-yl)methyl)isoindoline-1,3-dione] | B (80%< substrate protein remaining %≤ 100%) | B (80%< substrate protein remaining %≤ 100%) | A (0% ≤ substrate protein remaining % ≤ 80%) | B (80%< substrate protein remaining %≤ 100%) | B (80%< substrate protein remaining %≤ 100%) | B (80%< substrate protein remaining %≤ 100%)
Cc1cc(C2CCN(Cc3ccc4c(c3)C(=O)N(C3CCC(=O)NC3=O)C4=O)CC2)cs1 (stereo not drawn) [GT-06283, 2-(2,6-dioxopiperidin-3-yl)-5-((4-(5-methylthiophen-3-yl)piperidin-1-yl)methyl)isoindoline-1,3-dione] | B (80%< substrate protein remaining %≤ 100%) | B (80%< substrate protein remaining %≤ 100%) | A (0% ≤ substrate protein remaining % ≤ 80%) | B (80%< substrate protein remaining %≤ 100%) | B (80%< substrate protein remaining %≤ 100%) | B (80%< substrate protein remaining %≤ 100%)
O=C1CCC(N2C(=O)c3ccc(CN4CCC(c5ccco5)CC4)cc3C2=O)C(=O)N1 (stereo not drawn) [GT-06284, 2-(2,6-dioxopiperidin-3-yl)-5-((4-(furan-2-yl)piperidin-1-yl)methyl)isoindoline-1,3-dione] | B (80%< substrate protein remaining %≤ 100%) | B (80%< substrate protein remaining %≤ 100%) | A (0% ≤ substrate protein remaining % ≤ 80%) | B (80%< substrate protein remaining %≤ 100%) | B (80%< substrate protein remaining %≤ 100%) | B (80%< substrate protein remaining %≤ 100%)
O=C1CCC(N2C(=O)c3ccc(CN4CCC(c5ccoc5)CC4)cc3C2=O)C(=O)N1 (stereo not drawn) [GT-06285, 2-(2,6-dioxopiperidin-3-yl)-5-((4-(furan-3-yl)piperidin-1-yl)methyl)isoindoline-1,3-dione] | B (80%< substrate protein remaining %≤ 100%) | B (80%< substrate protein remaining %≤ 100%) | A (0% ≤ substrate protein remaining % ≤ 80%) | B (80%< substrate protein remaining %≤ 100%) | B (80%< substrate protein remaining %≤ 100%) | B (80%< substrate protein remaining %≤ 100%)
O=C1CCC(N2C(=O)c3ccc(CN4CCN(c5ccccc5)CC4)cc3C2=O)C(=O)N1 (stereo not drawn) [GT-06286, 2-(2,6-dioxopiperidin-3-yl)-5-((4-phenylpiperazin-1-yl)methyl)isoindoline-1,3-dione] | B (80%< substrate protein remaining %≤ 100%) | B (80%< substrate protein remaining %≤ 100%) | A (0% ≤ substrate protein remaining % ≤ 80%) | B (80%< substrate protein remaining %≤ 100%) | B (80%< substrate protein remaining %≤ 100%) | B (80%< substrate protein remaining %≤ 100%)
COc1ccccc1N1CCN(Cc2ccc3c(c2)C(=O)N(C2CCC(=O)NC2=O)C3=O)CC1 (stereo not drawn) [GT-06287, 2-(2,6-dioxopiperidin-3-yl)-5-((4-(2-methoxyphenyl)piperazin-1-yl)methyl)isoindoline-1,3-dione] | B (80%< substrate protein remaining %≤ 100%) | B (80%< substrate protein remaining %≤ 100%) | A (0% ≤ substrate protein remaining % ≤ 80%) | B (80%< substrate protein remaining %≤ 100%) | B (80%< substrate protein remaining %≤ 100%) | B (80%< substrate protein remaining %≤ 100%)
COc1cccc(N2CCN(Cc3ccc4c(c3)C(=O)N(C3CCC(=O)NC3=O)C4=O)CC2)c1 (stereo not drawn) [GT-06288, 2-(2,6-dioxopiperidin-3-yl)-5-((4-(3-methoxyphenyl)piperazin-1-yl)methyl)isoindoline-1,3-dione] | B (80%< substrate protein remaining %≤ 100%) | B (80%< substrate protein remaining %≤ 100%) | A (0% ≤ substrate protein remaining % ≤ 80%) | B (80%< substrate protein remaining %≤ 100%) | B (80%< substrate protein remaining %≤ 100%) | B (80%< substrate protein remaining %≤ 100%)
O=C1CCC(N2C(=O)c3ccc(CN4CCN(c5cccc(Br)c5)CC4)cc3C2=O)C(=O)N1 (stereo not drawn) [GT-06289, 5-((4-(3-bromophenyl)piperazin-1-yl)methyl)-2-(2,6-dioxopiperidin-3-yl)isoindoline-1,3-dione] | B (80%< substrate protein remaining %≤ 100%) | B (80%< substrate protein remaining %≤ 100%) | A (0% ≤ substrate protein remaining % ≤ 80%) | B (80%< substrate protein remaining %≤ 100%) | B (80%< substrate protein remaining %≤ 100%) | B (80%< substrate protein remaining %≤ 100%)
O=C1CCC(N2C(=O)c3ccc(CN4CCN(c5ccc(C(F)(F)F)cc5)CC4)cc3C2=O)C(=O)N1 (stereo not drawn) [GT-06290, 2-(2,6-dioxopiperidin-3-yl)-5-((4-(4-(trifluoromethyl)phenyl)piperazin-1-yl)methyl)isoindoline-1,3-dione] | B (80%< substrate protein remaining %≤ 100%) | B (80%< substrate protein remaining %≤ 100%) | A (0% ≤ substrate protein remaining % ≤ 80%) | B (80%< substrate protein remaining %≤ 100%) | B (80%< substrate protein remaining %≤ 100%) | B (80%< substrate protein remaining %≤ 100%)
O=C1CCC(N2C(=O)c3ccc(CN4CCN(c5cccc(F)c5)CC4)cc3C2=O)C(=O)N1 (stereo not drawn) [GT-06291, 2-(2,6-dioxopiperidin-3-yl)-5-((4-(3-fluorophenyl)piperazin-1-yl)methyl)isoindoline-1,3-dione] | B (80%< substrate protein remaining %≤ 100%) | B (80%< substrate protein remaining %≤ 100%) | A (0% ≤ substrate protein remaining % ≤ 80%) | B (80%< substrate protein remaining %≤ 100%) | B (80%< substrate protein remaining %≤ 100%) | B (80%< substrate protein remaining %≤ 100%)
O=C1CCC(N2C(=O)c3ccc(CN4CCN(c5ccc(F)cc5)CC4)cc3C2=O)C(=O)N1 (stereo not drawn) [GT-06292, 2-(2,6-dioxopiperidin-3-yl)-5-((4-(4-fluorophenyl)piperazin-1-yl)methyl)isoindoline-1,3-dione] | B (80%< substrate protein remaining %≤ 100%) | B (80%< substrate protein remaining %≤ 100%) | A (0% ≤ substrate protein remaining % ≤ 80%) | B (80%< substrate protein remaining %≤ 100%) | B (80%< substrate protein remaining %≤ 100%) | B (80%< substrate protein remaining %≤ 100%)
O=C1CCC(N2C(=O)c3ccc(CN4CCN(c5ccccc5Br)CC4)cc3C2=O)C(=O)N1 (stereo not drawn) [GT-06293, 5-((4-(2-bromophenyl)piperazin-1-yl)methyl)-2-(2,6-dioxopiperidin-3-yl)isoindoline-1,3-dione] | B (80%< substrate protein remaining %≤ 100%) | B (80%< substrate protein remaining %≤ 100%) | A (0% ≤ substrate protein remaining % ≤ 80%) | B (80%< substrate protein remaining %≤ 100%) | B (80%< substrate protein remaining %≤ 100%) | B (80%< substrate protein remaining %≤ 100%)
O=C1CCC(N2C(=O)c3ccc(CN4CCN(c5ccc(Br)cc5)CC4)cc3C2=O)C(=O)N1 (stereo not drawn) [GT-06295, 5-((4-(4-bromophenyl)piperazin-1-yl)methyl)-2-(2,6-dioxopiperidin-3-yl)isoindoline-1,3-dione] | B (80%< substrate protein remaining %≤ 100%) | B (80%< substrate protein remaining %≤ 100%) | A (0% ≤ substrate protein remaining % ≤ 80%) | B (80%< substrate protein remaining %≤ 100%) | B (80%< substrate protein remaining %≤ 100%) | B (80%< substrate protein remaining %≤ 100%)
